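1) Cells in 96-well plates. 2) Compound, 48 h, 5 concentrations. 3) Linear interpolation between surrounding doses. 4) Unreached endpoint = highest concentration. GI50: concentration for 50% inhibition of growth.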 Calls of active or inactive are those of the source. No stated cut-off is given here; in the data, active = GI50 up to about 1.1 µM and inactive = higher.
Tests used:
Test in all cases: inhibition of tumour cell growth, NCI panel, 48 h
[1] = test system: 786-0
[2] = test system: A549
[3] = test system: ACHN
[4] = test system: CAKI-1
[5] = test system: CCRF-CEM
[6] = test system: COLO 205
[7] = test system: DLD-1
[8] = test system: DMS-114
[9] = test system: HCC 2998
[10] = test system: HCT-116
[11] = test system: HCT-15
[12] = test system: HL-60
[13] = test system: HOP-62
[14] = test system: HOP-92
[15] = test system: HT-29
[16] = test system: IGROV-1
[17] = test system: K562
[18] = test system: KM-20L2
[19] = test system: KM12
[20] = test system: LOX IMVI
[21] = test system: LXFL 529
[22] = test system: M14
[23] = test system: M19-MEL
[24] = test system: MOLT-4
[25] = test system: Malme-3M
[26] = test system: NCI-H226
[27] = test system: NCI-H23
[28] = test system: NCI-H460
[29] = test system: NCI-H522
[30] = test system: OVCAR-3
[31] = test system: OVCAR-4
[32] = test system: OVCAR-5
[33] = test system: OVCAR-8
[34] = test system: RPMI-8226
[35] = test system: RXF 393
[36] = test system: RXF 631
[37] = test system: SF-268
[38] = test system: SF-295
[39] = test system: SF-539
[40] = test system: SK-MEL-28
[41] = test system: SK-MEL-5
[42] = test system: SK-OV-3
[43] = test system: SN12C
[44] = test system: SNB-19
[45] = test system: SNB-75
[46] = test system: SNB-78
[47] = test system: SR
[48] = test system: SW-620
[49] = test system: TK-10
[50] = test system: U-251
[51] = test system: UACC-257
[52] = test system: UACC-62
[53] = test system: UO-31
[54] = test system: XF498
[55] = test system: A498
[56] = test system: DMS-273
[57] = test system: EKVX
[58] = test system: SK-MEL-2

## CCN1CCN(c2ccc(Nc3ccnc4ccc5nn(C)nc5c34)cc2)CC1
[1]
  GI50: 10.4 µM (inactive)
[2]
  GI50: 13.8 µM (inactive)
[3]
  GI50: 10.6 µM (inactive)
[4]
  GI50: 12.8 µM (inactive)
[5]
  GI50: > 100 µM (inactive)
[6]
  GI50: 5.08 µM (inactive)
[7]
  GI50: 11.6 µM (inactive)
[8]
  GI50: 10.1 µM (inactive)
[9]
  GI50: 13.2 µM (inactive)
[10]
  GI50: 5.58 µM (inactive)
[11]
  GI50: 13.8 µM
[12]
  GI50: 94.8 µM (inactive)
[13]
  GI50: 13.1 µM (inactive)
[14]
  GI50: 11.9 µM (inactive)
[15]
  GI50: 4.26 µM (inactive)
[16]
  GI50: 18.6 µM (inactive)
[17]
  GI50: 5.12 µM (inactive)
[18]
  GI50: 8.36 µM (inactive)
[19]
  GI50: 10.7 µM (inactive)
[20]
  GI50: 7.18 µM (inactive)
[21]
  GI50: 10.7 µM (inactive)
[22]
  GI50: 16.1 µM (inactive)
[23]
  GI50: 16.1 µM (inactive)
[24]
  GI50: 4.5 µM (inactive)
[25]
  GI50: 16.9 µM (inactive)
[26]
  GI50: 12.3 µM (inactive)
[27]
  GI50: 15.4 µM (inactive)
[28]
  GI50: 5.41 µM (inactive)
[29]
  GI50: 11.1 µM (inactive)
[30]
  GI50: 13.5 µM (inactive)
[31]
  GI50: 11.9 µM (inactive)
[32]
  GI50: 15.9 µM (inactive)
[33]
  GI50: 9.71 µM (inactive)
[34]
  GI50: 7.08 µM (inactive)
[35]
  GI50: 10.2 µM (inactive)
[36]
  GI50: 10 µM (inactive)
[37]
  GI50: 14.9 µM (inactive)
[38]
  GI50: 12.4 µM (inactive)
[39]
  GI50: 13.8 µM (inactive)
[40]
  GI50: 16.6 µM (inactive)
[41]
  GI50: 15.2 µM (inactive)
[42]
  GI50: 13.8 µM (inactive)
[43]
  GI50: 10.7 µM (inactive)
[44]
  GI50: 18.7 µM (inactive)
[45]
  GI50: 13.2 µM (inactive)
[46]
  GI50: 14.2 µM (inactive)
[47]
  GI50: 4.22 µM (inactive)
[48]
  GI50: 4.22 µM (inactive)
[49]
  GI50: 17.5 µM (inactive)
[50]
  GI50: 13.5 µM (inactive)
[51]
  GI50: 16.6 µM (inactive)
[52]
  GI50: 16.9 µM (inactive)
[53]
  GI50: 12.8 µM (inactive)
[54]
  GI50: 13.9 µM (inactive)

## COc1ccc2c3c([nH]c2c1[N+](=O)[O-])C(C)=NCC3
[1]
  GI50: > 100 µM (inactive)
[55]
  GI50: 18.8 µM (inactive)
[2]
  GI50: 77.4 µM (inactive)
[3]
  GI50: 52.6 µM (inactive)
[4]
  GI50: 47.1 µM (inactive)
[5]
  GI50: 93.5 µM (inactive)
[6]
  GI50: 15.2 µM (inactive)
[7]
  GI50: 99.1 µM (inactive)
[8]
  GI50: > 100 µM (inactive)
[56]
  GI50: 41.7 µM (inactive)
[57]
  GI50: > 100 µM (inactive)
[9]
  GI50: > 100 µM (inactive)
[10]
  GI50: 30.2 µM (inactive)
[11]
  GI50: > 100 µM
[12]
  GI50: > 100 µM (inactive)
[13]
  GI50: > 100 µM (inactive)
[15]
  GI50: 56.8 µM (inactive)
[16]
  GI50: 20.9 µM (inactive)
[17]
  GI50: 62.7 µM (inactive)
[18]
  GI50: 69.3 µM (inactive)
[19]
  GI50: 89.3 µM (inactive)
[20]
  GI50: 50.9 µM (inactive)
[21]
  GI50: > 100 µM (inactive)
[22]
  GI50: > 100 µM (inactive)
[24]
  GI50: 30.8 µM (inactive)
[26]
  GI50: 51.8 µM (inactive)
[27]
  GI50: > 10 µM (inactive)
[28]
  GI50: 34.9 µM (inactive)
[29]
  GI50: > 100 µM (inactive)
[30]
  GI50: > 100 µM (inactive)
[31]
  GI50: > 100 µM (inactive)
[32]
  GI50: 61 µM (inactive)
[33]
  GI50: 62.7 µM (inactive)
[34]
  GI50: 39.7 µM (inactive)
[35]
  GI50: > 100 µM (inactive)
[36]
  GI50: > 100 µM (inactive)
[37]
  GI50: 20 µM (inactive)
[38]
  GI50: 72.8 µM (inactive)
[39]
  GI50: 65.6 µM (inactive)
[40]
  GI50: > 100 µM (inactive)
[58]
  GI50: > 100 µM (inactive)
[43]
  GI50: 80.7 µM (inactive)
[44]
  GI50: > 100 µM (inactive)
[45]
  GI50: > 100 µM (inactive)
[46]
  GI50: > 100 µM (inactive)
[47]
  GI50: 40.4 µM (inactive)
[48]
  GI50: 53.1 µM (inactive)
[49]
  GI50: > 100 µM (inactive)
[50]
  GI50: > 100 µM (inactive)
[51]
  GI50: > 100 µM (inactive)
[52]
  GI50: 19.5 µM (inactive)
[53]
  GI50: 98.4 µM (inactive)
